US8785488B2 (Exelixis Patent Company LLC, priority 2009, dated 2014)
Read-outs that look alike come from different tables or passages of the source.

Assays:
h-TGR5 = biological target: T1, h-TGR5 (Homo sapiens, UniProt Q8TDU6); assay: TGR5 cAMP Assay using Cisbio cAMP Dynamic2 htrf kit (hTGR5CRE-luc HEK 293 cells); format: cell-based
T1 construct: expressed in transfected cells
T1 sequence (Q8TDU6 1-330): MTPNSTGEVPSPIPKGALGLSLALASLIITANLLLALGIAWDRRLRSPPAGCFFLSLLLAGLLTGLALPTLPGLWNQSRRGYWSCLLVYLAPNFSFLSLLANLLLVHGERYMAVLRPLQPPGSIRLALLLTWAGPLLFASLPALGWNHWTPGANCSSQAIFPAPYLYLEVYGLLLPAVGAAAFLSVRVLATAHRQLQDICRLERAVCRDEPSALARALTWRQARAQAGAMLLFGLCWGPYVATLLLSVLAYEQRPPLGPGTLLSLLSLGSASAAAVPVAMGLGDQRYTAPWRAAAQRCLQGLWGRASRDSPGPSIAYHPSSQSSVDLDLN
Procedure, shortened: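 […], 4000 hTGR5CRE-luc HEK 293 cells per well, with 0.5 mM IBMX and d2-cAMP, were incubated 30 min at room temperature with compounds in 8-point half-log series, in quadruplicate.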

human TGR5 (h-TGR5) = biological target: T2, human TGR5 (h-TGR5) (Homo sapiens, UniProt Q8TDU6); assay: TGR5/CRE-Luciferiase Assay (HEK 293 hTGR5/CRE-Luc cells); format: cell-based
T2 construct: expressed in transfected cells
T2 sequence (Q8TDU6 1-330): T1 sequence (Q8TDU6 1-330)
Procedure, shortened: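 HEK293 cells stably carrying hTGR5 and a CRE-luciferase reporter were exposed to serially diluted compounds (diluted in DMEM with 5% DMSO) for 6 h. Cells were then lysed in luciferase buffer, luminescence was read, and EC50 values were derived from dose-response curves.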

[1] = h-TGR5 cAMP EC50, Table 1, read-out: cAMP (EC50)
[2] = h-TGR5 CRE-Luc EC50, Table 1, read-out: CRE-Luc (EC50)

EC50 (h-TGR5; [1]) [nM]	EC50 (human TGR5 (h-TGR5); [2]) [nM]	EC50 (h-TGR5; hTGR5CRE-luc HEK 293 cells, htrf cAMP, Table 2, read-out: h-TGR5 cAMP EC50 (cAMP)) [nM]	EC50 (human TGR5 (h-TGR5); HEK 293 hTGR5/CRE-Luc cells, 6 hours incubation, luciferase activity, Table 2, read-out: h-TGR5CRE-Luc EC50 (CRE-Luc)) [nM]	SMILES
< 100	< 100			COc1cc(C(C)(C)c2cnc(SCc3ccc(S(=O)(=O)NC(=O)NC4CC4)cc3Cl)n2-c2ccc(F)cc2)ccc1Cl [3-chloro-4-({[5-{1-[4-chloro-3-(methyloxy)phenyl]-1-methylethyl}-1-(4-fluorophenyl)-1H-imidazol-2-yl]thio}methyl)-N-[(cyclopropylamino)carbonyl] benzenesulfonamide]
< 100	< 100			CC(C)(c1ccc(Cl)c(Cl)c1)c1cnc(SCc2c(F)cc(C(=O)NCCS(=O)(=O)O)cc2F)n1-c1ccc(F)c(Cl)c1 [2-[({4-[({1-(3-chloro-4-fluorophenyl)-5-[1-(3,4-dichlorophenyl)-1-methylethyl]-1H-imidazol-2-yl}thio)methyl]-3,5-difluorophenyl}carbonyl)amino]ethanesulfonic acid]
100 to 1000	100 to 1000			CC(C)(c1ccc(Cl)c(Cl)c1)c1cnc(SCc2c(F)cc(C(N)=O)cc2F)n1-c1ccc(F)cc1 [4-[({5-[1-(3,4-dichlorophenyl)-1-methylethyl]-1-(4-fluorophenyl)-1H-imidazol-2-yl}thio)methyl]-3,5-difluorobenzamide]
100 to 1000	100 to 1000			CC(C)(c1ccc(Cl)c(Cl)c1)c1cnc(SCc2ccc(F)c(C(=O)O)c2)n1-c1ccc(F)cc1 [5-[({5-[1-(3,4-dichlorophenyl)-1-methylethyl]-1-(4-fluorophenyl)-1H-imidazol-2-yl}thio)methyl]-2-fluorobenzoic acid]
100 to 1000	100 to 1000			CC(C)(c1ccc(Cl)c(OCCCN2CCOCC2)c1)c1cnc(SCc2c(F)cc(C(=O)O)cc2Cl)n1-c1ccc(F)cc1 [3-chloro-4-({[5-(1-{4-chloro-3-[(3-morpholin-4-ylpropyl)oxy]phenyl}-1-methylethyl)-1-(4-fluorophenyl)-1H-imidazol-2-yl]thio}methyl)-5-fluorobenzoic acid]
100 to 1000	< 100			COc1ccc(C(C)(C)c2cnc(SCc3ccc(F)cc3Cl)n2-c2ccc(F)cc2)cc1OC [5-{1-[3,4-bis(methyloxy)phenyl]-1-methylethyl}-2-{[(2-chloro-4-fluorophenyl)methyl]thio}-1-(4-fluorophenyl)-1H-imidazole]
< 100	< 100			COc1cc(C(C)(C)c2cnc(SCC3CCN(S(C)(=O)=O)CC3)n2-c2ccc(F)cc2)ccc1Cl [4-({[5-{1-[4-chloro-3-(methyloxy)phenyl]-1-methylethyl}-1-(4-fluorophenyl)-1H-imidazol-2-yl]thio}methyl)-1-(methylsulfonyl)piperidine]
100 to 1000	100 to 1000			CC(C)(c1ccc(Cl)c(Cl)c1)c1cnc(SCc2ccc(-c3nnn[nH]3)cc2F)n1-c1ccc(F)cc1 [5-{4-[({5-[1-(3,4-dichlorophenyl)-1-methylethyl]-1-(4-fluorophenyl)-1H-imidazol-2-yl}thio)methyl]-3-fluorophenyl}-1H-tetrazole]
< 100	100 to 1000			COc1cc(C(C)(C)c2cnc(SCc3ccc(S(=O)(=O)NC(=O)N4CCCC4)cc3Cl)n2-c2ccc(F)cc2)ccc1Cl [N-{[3-chloro-4-({[5-{1-[4-chloro-3-(methyloxy)phenyl]-1-methylethyl}-1-(4-fluorophenyl)-1H-imidazol-2-yl]thio}methyl)phenyl]sulfonyl}pyrrolidine-1-carboxamide]
100 to 1000	< 100			COc1ccc(C(C)(C)c2cnc(SCc3c(F)cccc3Cl)n2-c2ccc(F)cc2)cc1 [2-{[(2-chloro-6-fluorophenyl)methyl]thio}-1-(4-fluorophenyl)-5-{1-methyl-1-[4-(methyloxy)phenyl]ethyl}-1H-imidazole]
		100 to 1000	100 to 1000	CC(C)(c1ccc(Cl)c(Cl)c1)c1nnc(SCc2c(F)cc(C(=O)O)cc2F)n1-c1ccc(F)cc1 [Example 48]
< 100	< 100			COc1cc(C(C)(C)c2cnc(SCc3c(F)cc(-c4nnn[nH]4)cc3F)n2-c2ccc(F)cc2)ccc1Cl [5-[4-({[5-{1-[4-chloro-3-(methyloxy)phenyl]-1-methylethyl}-1-(4-fluorophenyl)-1H-imidazol-2-yl]thio}methyl)-3,5-difluorophenyl]-1H-tetrazole]
< 100	< 100			COc1cc(-n2c(C(C)(C)c3ccc(S(N)(=O)=O)c(Cl)c3)cnc2SCc2c(F)cc(C(=O)NCCS(=O)(=O)O)cc2F)ccc1F [2-{[(4-{[(5-{1-[4-(aminosulfonyl)-3-chlorophenyl]-1-methylethyl}-1-[4-fluoro-3-(methyloxy)phenyl]-1H-imidazol-2-yl)thio]methyl}-3,5-difluorophenyl)carbonyl]amino}ethanesulfonic acid]
100 to 1000	100 to 1000			CC(C)(c1ccc(F)c(F)c1)c1cnc(SCc2cc(C(=O)O)ccc2Cl)n1-c1ccc(F)cc1 [4-chloro-3-[({5-[1-(3,4-difluorophenyl)-1-methylethyl]-1-(4-fluorophenyl)-1H-imidazol-2-yl}thio)methyl]benzoic acid]
< 100	< 100			COc1cc(-n2c(C(C)(C)c3ccc(Cl)c(Cl)c3)cnc2SCc2c(F)cc(C(=O)NCS(=O)(=O)O)cc2F)ccc1F [[({4-[({5-[1-(3,4-dichlorophenyl)-1-methylethyl]-1-[4-fluoro-3-(methyloxy)phenyl]-1H-imidazol-2-yl}thio)methyl]-3,5-difIuorophenyl}carbonyl)amino]methanesulfonic acid]
100 to 1000	100 to 1000			CC(C)(c1ccc(Cl)c(Cl)c1)c1cnc(SCc2c(F)cc(-c3nnn[nH]3)cc2F)n1-c1ccc(F)cc1 [5-{4-[({5-[1-(3,4-dichlorophenyl)-1-methylethyl]-1-(4-fluorophenyl)-1H-imidazol-2-yl}thio)methyl]-3,5-difluorophenyl}-1H-tetrazole]
< 100	< 100			COc1cc(C(C)(C)c2cnc(SCc3c(F)cc(S(N)(=O)=O)cc3F)n2-c2ccc(F)cc2)ccc1Cl [4-({[5-{1-[4-chloro-3-(methyloxy)phenyl]-1-methylethyl}-1-(4-fluorophenyl)-1H-imidazol-2-yl]thio}methyl)-3,5-difluorobenzenesulfonamide]
< 100	< 100			COc1cc(C(C)(C)c2cnc(SCc3c(F)cc(CCCCNC(=N)N)cc3F)n2-c2ccc(F)cc2)ccc1Cl [1-{4-[4-({[5-{1-[4-chloro-3-(methyloxy)phenyl]-1-methylethyl}-1-(4-fluorophenyl)-1H-imidazol-2-yl]thio}methyl)-3,5-difluorophenyl]butyl}guanidine]
1000 to 10000	100 to 1000			CC(C)(c1ccc(Cl)c(Cl)c1)c1cnc(SCC2CCN(c3nnn[nH]3)C2)n1-c1ccc(F)cc1 (centres unmarked) [5-{3-[({5-[1-(3,4-dichlorophenyl)-1-methylethyl]-1-(4-fluorophenyl)-1H-imidazol-2-yl}thio)methyl]pyrrolidin-1-yl}-1H-tetrazole]
100 to 1000	100 to 1000			CC(C)(c1ccc(Cl)c(Cl)c1)c1cnc(SCc2ccc(F)c(OCC(=O)O)c2)n1-c1ccc(F)cc1 [({5-[({5-[1-(3,4-dichlorophenyl)-1-methylethyl]-1-(4-fluorophenyl)-1H-imidazol-2-yl}thio)methyl]-2-fluorophenyl}oxy)acetic acid]
100 to 1000	100 to 1000			CC(C)(O)CNC(=O)c1ccc(CSc2ncc(C(C)(C)c3ccc(Cl)c(Cl)c3)n2-c2ccc(F)cc2)c(F)c1 [4-[({5-[1-(3,4-dichlorophenyl)-1-methylethyl]-1-(4-fluorophenyl)-1H-imidazol-2-yl}thio)methyl]-3-fluoro-N-(2-hydroxy-2-methylpropyl)benzamide]
100 to 1000	100 to 1000			CC(C)(c1ccc(S(N)(=O)=O)c(Cl)c1)c1cnc(SCc2ccc(S(=O)(=O)NC(=O)NN3CCOCC3)cc2Cl)n1-c1ccc(F)c(F)c1 [4-({[5-{1-[4-(aminosulfonyl)-3-chlorophenyl]-1-methylethyl}-1-(3,4-difluorophenyl)-1H-imidazol-2-yl]thio}methyl)-3-chloro-N-[(morpholin-4-ylamino)carbonyl]benzenesulfonamide]
100 to 1000	100 to 1000			CC(C)(c1ccc(Cl)c(Cl)c1)c1cnc(SCC2CCN(S(C)(=O)=O)C2)n1-c1ccc(F)cc1 (centres unmarked) [5-[1-(3,4-dichlorophenyl)-1-methylethyl]-1-(4-fluorophenyl)-2-({[1-(methylsulfonyl)pyrrolidin-3-yl]methyl}thio)-1H-imidazole]
100 to 1000	< 100			CC(C)(c1ccc(Cl)c(Cl)c1)c1cnc(SCC2CCN(c3nnn[nH]3)CC2)n1-c1ccc(F)cc1 [4-[({5-[1-(3,4-dichlorophenyl)-1-methylethyl]-1-(4-fluorophenyl)-1H-imidazol-2-yl}thio)methyl]-1-(1H-tetrazol-5-yl)piperidine]
100 to 1000	< 100			COc1cc(C(C)(C)c2cnc(COc3ccc(Cl)c(-c4nnn[nH]4)c3)n2-c2ccc(F)cc2)ccc1Cl [5-[2-chloro-5-({[5-{1-[4-chloro-3-(methyloxy)phenyl]-1-methylethyl}-1-(4-fluorophenyl)-1H-imidazol-2-yl]methyl}oxy)phenyl]-1H-tetrazole]
